According to the supplement of paper PMC10331698:
± gives the standard deviation of the averaged measurements.

Experiments:
Assay in all cases: level (log10 ratio to DMSO vehicle control); higher = higher biomarker level / cell amount than vehicle control
[1] = compound: OCC(F)(F)C(F)(F)C(F)(F)C(F)F [1H,1H,5H-Perfluoropentanol] (in DMSO)
Procedure: (§1)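 BioMAP Diversity Plus panel of 12 human primary cell co-culture systems (3C, 4H, LPS, SAg, BT, BF4T, BE3C, CASM3C, HDF3CGF, KF3CT, MyoF, Mphg). Compounds were added 1 h before stimulation and left for 24 h (MyoF 48 h; BT 72 h for soluble read-outs or 6 d for IgG). Biomarkers were read by ELISA, cytotoxicity by SRB, PBMC viability and proliferation by Alamar Blue. Each well value was divided by the mean of 8 DMSO control wells on the same plate and log10 transformed; duplicate blinded samples were tested at 4 concentrations.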

[2] = compound: OCC(F)(F)C(F)(F)C(F)(F)C(F)(F)C(F)(F)C(F)(F)CO [1H,1H,8H,8H-Perfluorooctane-1,8-diol] (in DMSO)
Procedure: as §1

[3] = compound: O=S(=O)(O)CCC(F)(F)C(F)(F)C(F)(F)C(F)(F)C(F)(F)C(F)(F)C(F)(F)C(F)(F)F [8:2 Fluorotelomer sulfonic acid] (in DMSO)
Procedure: as §1

[4] = compound: C[C@@H]1C[C@H]2[C@@H]3CCC4=CC(=O)C=C[C@]4(C)[C@@]3(F)[C@@H](O)C[C@]2(C)[C@@]1(O)C(=O)COP(=O)(O)O [Dexamethasone sodium phosphate] (in DMSO)
Procedure: as §1

[5] = compound: CCOC(=O)CC(=O)C(F)(F)C(F)(F)F [Ethyl pentafluoropropionyl acetate] (in DMSO)
Procedure: as §1

Octafluoroadipic acid = compound: O=C(O)C(F)(F)C(F)(F)C(F)(F)C(F)(F)C(=O)O [Octafluoroadipic acid] (in DMSO)
Procedure: as §1

[6] = compound: O=C(O)C(F)(F)OC(F)(F)C(F)(F)OC(F)(F)C(F)(F)OC(F)(F)C(F)(F)C(F)(F)C(F)(F)F [Perfluoro-3,6,9-trioxatridecanoic acid] (in DMSO); settings: 6700 nM
Procedure: as §1

Test System	level (log10) ([1]; 6700 nM)	level (log10) ([1]; 20000 nM)	level (log10) ([1]; 60000 nM)	level (log10) ([2]; 6700 nM)	level (log10) ([2]; 20000 nM)	level (log10) ([2]; 60000 nM)	level (log10) ([3]; 6700 nM)	level (log10) ([3]; 20000 nM)	level (log10) ([3]; 60000 nM)	level (log10) ([4]; 1500 nM)	level (log10) ([4]; 4400 nM)	level (log10) ([4]; 13000 nM)	level (log10) ([4]; 40000 nM)	level (log10) ([5]; 6700 nM)	level (log10) ([5]; 20000 nM)	level (log10) ([5]; 60000 nM)	level (log10) (Octafluoroadipic acid; 6700 nM)	level (log10) (Octafluoroadipic acid; 20000 nM)	level (log10) (Octafluoroadipic acid; 60000 nM)	level (log10) [6]
HDF3CGF:MMP-1	0.0075 ± 0.005	0.007 ± 0.0085	0.0105 ± 0.022	0.0005 ± 0.013	-0.0025 ± 0.013	0.008 ± 0.0071	0.0205 ± 0.012	-0.017 ± 0.028	-0.0835 ± 0.036	-0.0695 ± 0.011	-0.065 ± 0.016	-0.098 ± 0.018	-0.081 ± 0.042	0.01 ± 0.028	0.022 ± 0.0071	0.029 ± 0.034	-0.0115 ± 0.0078	0.0025 ± 0.0035	0.0015 ± 0.0064	-0.134 ± 0.054
HDF3CGF:PAI-I	-0.111 ± 0.12	-0.047 ± 0.16	-0.0365 ± 0.096	-0.0085 ± 0.0092	-0.026 ± 0.0057	-0.023 ± 0.017	0.018 ± 0.034	-0.002 ± 0.021	0.0015 ± 0.0078	0.091 ± 0.011	0.0875 ± 0.0035	0.072 ± 0.0042	0.039 ± 0.0099	-0.01 ± 0.025	0.004 ± 0.024	0.031 ± 0.062	-0.008 ± 0.017	-0.017 ± 0.0071	0.0115 ± 0.037	-0.212 ± 0.0099
HDF3CGF:Proliferation 72hr	-0.023 ± 0.058	0.035 ± 0.024	0.0065 ± 0.025	-0.04 ± 0.013	-0.0035 ± 0.026	-0.102 ± 0.027	0.0275 ± 0.044	0.0785 ± 0.06	0.107 ± 0.0014	0.0165 ± 0.011	-0.0255 ± 0.047	0.0645 ± 0.015	0.095 ± 0.064	-0.019 ± 0.073	-0.017 ± 0.092	0.036 ± 0.017	-0.036 ± 0.0042	0.024 ± 0.047	0.013 ± 0.017	-0.827 ± 0.29
HDF3CGF:SRB	-0.0275 ± 0.0064	-0.0025 ± 0.03	-0.0015 ± 0.037	-0.043 ± 0.052	-0.0135 ± 0.056	-0.0405 ± 0.1	-0.044 ± 0.064	-0.017 ± 0.1	0.168 ± 0.037	0.0165 ± 0.0064	0.0285 ± 0.025	0.0515 ± 0.03	0.0415 ± 0.07	0.007 ± 0.027	-0.0005 ± 0.032	0.0025 ± 0.021	-0.033 ± 0.023	0.0135 ± 0.037	-0.0005 ± 0.042	-0.107 ± 0.0021
HDF3CGF:TIMP-1	-0.012 ± 0.031	-0.0155 ± 0.025	0.006 ± 0.027	-0.002 ± 0.0071	-0.003 ± 0.0085	0.019 ± 0.025	0.0375 ± 0.0064	0.0435 ± 0.037	-0.0365 ± 0.077	-0.0755 ± 0.04	-0.0735 ± 0.053	-0.112 ± 0.07	-0.175 ± 0.081	-0.0085 ± 0.037	-0.007 ± 0.0071	-0.0305 ± 0.012	-0.0055 ± 0.03	0.022 ± 0.059	0.023 ± 0.055	-0.109 ± 0.088
HDF3CGF:TIMP-2	-0.0525 ± 0.086	-0.0265 ± 0.067	-0.0175 ± 0.087	0.003 ± 0.0014	0.0255 ± 0.0035	0.0145 ± 0.00071	-0.003 ± 0.016	-0.023 ± 0.016	-0.0475 ± 0.022	0.0475 ± 0.028	0.062 ± 0.081	0.061 ± 0.065	0.0585 ± 0.0021	-0.05 ± 0.044	-0.012 ± 0.024	-0.069 ± 0.011	0.007 ± 0.0085	0.02 ± 0.023	0.0055 ± 0.0078	-0.291 ± 0.005
KF3CT:CCL2/MCP-1	0.0055 ± 0.026	-0.0495 ± 0.087	0.007 ± 0.13	-0.017 ± 0.0099	-0.0235 ± 0.03	0.0005 ± 0.081	-0.0135 ± 0.005	-0.0585 ± 0.029	-0.0475 ± 0.011	-0.0015 ± 0.08	-0.0565 ± 0.049	-0.0105 ± 0.0035	-0.033 ± 0.016	-0.0355 ± 0.0064	-0.045 ± 0.035	0.001 ± 0.071	-0.0165 ± 0.043	-0.0265 ± 0.00071	0.0285 ± 0.026	-0.295 ± 0.023
KF3CT:CD54/ICAM-1	-0.002 ± 0.0071	-0.003 ± 0.023	0.004	-0.009 ± 0.0042	0.0015 ± 0.0092	-0.01 ± 0.018	-0.026 ± 0.02	-0.0495 ± 0.018	-0.0515 ± 0.005	-0.0125 ± 0.0078	0.01 ± 0.018	-0.012 ± 0.011	-0.003 ± 0.013	-0.003 ± 0.024	0.006 ± 0.014	0.0075 ± 0.03	-0.0045 ± 0.0035	-0.0105 ± 0.0078	-0.009 ± 0.018	0.019 ± 0.0042
KF3CT:CXCL8/IL-8	0.0155 ± 0.016	0.0205 ± 0.021	0.0415 ± 0.049	-0.0015 ± 0.019	-0.0215 ± 0.023	0	0.016 ± 0.038	-0.03 ± 0.023	-0.131 ± 0.036	-0.044 ± 0.05	-0.05 ± 0.02	-0.045 ± 0.021	-0.045 ± 0.0028	-0.012 ± 0.018	-0.0155 ± 0.0021	-0.0005 ± 0.029	-0.0015 ± 0.015	0.0105 ± 0.0092	0.012 ± 0.017	-0.047 ± 0.0042
KF3CT:CXCL9/MIG	-0.009 ± 0.0085	-0.006 ± 0.017	0.008 ± 0.023	0.007 ± 0.011	0.0025 ± 0.00071	0.0105 ± 0.005	0.005 ± 0.017	0.003 ± 0.0099	0.01 ± 0.0057	-0.008 ± 0.024	0.002 ± 0.0014	-0.0075 ± 0.0021	-0.01 ± 0.0014	0.002 ± 0.0028	0.0015 ± 0.0078	-0.0025 ± 0.0064	0.003 ± 0.014	0.0075 ± 0.016	0.0155 ± 0.0021	-0.0395 ± 0.042
KF3CT:CXCL10/IP-10	-0.0125 ± 0.033	0.0025 ± 0.00071	0.0365 ± 0.00071	-0.003 ± 0.0028	-0.001 ± 0.014	-0.009 ± 0.0085	-0.015 ± 0.0028	-0.044 ± 0.0042	-0.0495 ± 0.00071	0.0015 ± 0.0021	0.01 ± 0.0071	0.005	0.0055 ± 0.0064	-0.002 ± 0.013	-0.009 ± 0.0057	-0.009 ± 0.0071	0 ± 0.0028	-0.001 ± 0.0028	-0.001 ± 0.014	-0.282 ± 0.12
KF3CT:IL-1alpha	-0.0465 ± 0.05	-0.0475 ± 0.056	0.0535 ± 0.025	-0.0085 ± 0.022	-0.0095 ± 0.0064	0.0225 ± 0.057	-0.041 ± 0.027	-0.137 ± 0.033	-0.0655 ± 0.046	-0.036 ± 0.018	-0.035 ± 0.0057	-0.0305 ± 0.00071	-0.051 ± 0.044	-0.021 ± 0.011	-0.0345 ± 0.022	-0.001 ± 0.031	-0.005 ± 0.013	-0.0245 ± 0.011	0.004 ± 0.02	-0.041 ± 0.03
KF3CT:MMP-9	-0.024 ± 0.045	-0.008 ± 0.0071	0.0125 ± 0.04	-0.003 ± 0.0028	0.009 ± 0.0014	0.058 ± 0.0099	-0.009 ± 0.0014	0.0165 ± 0.0078	-0.0335 ± 0.018	-0.0065 ± 0.00071	-0.002	-0.023 ± 0.014	-0.0175 ± 0.013	-0.0165 ± 0.013	-0.0005 ± 0.012	-0.011 ± 0.0099	-0.0065 ± 0.005	0.0085 ± 0.015	0.0175 ± 0.015	-0.278 ± 0.039
KF3CT:PAI-I	0.0105 ± 0.098	0.062 ± 0.035	-0.0045 ± 0.011	-0.004 ± 0.0085	-0.008 ± 0.0071	-0.0155 ± 0.0021	-0.0065 ± 0.022	-0.029 ± 0.014	-0.0255 ± 0.019	0.0055 ± 0.0021	0.0235 ± 0.0092	0.002 ± 0.025	0.006	-0.02 ± 0.023	-0.01 ± 0.035	-0.0055 ± 0.026	-0.0135 ± 0.0092	-0.0135 ± 0.011	-0.002 ± 0.017	-0.126
